The results in this text go back to the SangsterLogP compilation.

For the compound `CC(CO)Oc1ccccc1` (centres undefined), the logP was determined as 1.5.
For the compound `CCCCOCC(C)OCC(C)O` (centres undefined), the logP is 1.52.
As for `CCCCOCC(C)OCC(C)OCC(C)O` (centres undefined), the logP stood at 1.9.
For `COCC(C)OCC(C)OC(C)=O` (centres undefined), the log partition coefficient (logP) turned out to be 0.8.
As for `COC(C)COC(C)=O` (centres undefined), the figure is 0.43; as for `COCCCO`, -0.44.
As for `CCCOCC(C)O` (centres undefined), the figure is 0.62.
In turn, `CCCCOCC(C)O` (centres undefined) yielded a logP of 1.15.
Turning to `COC(C)COC(C)CO` (centres undefined), the log partition coefficient (logP) is -0.06.
With `COCC(C)O` (centres undefined), the logP was -0.44.
As for `CCCOCC(C)OCC(C)O` (centres undefined), the figure is 0.99; as for `COC(C)COC(C)COC(C)=O` (centres undefined), 0.8; as for `CC(O)COc1ccccc1` (centres undefined), 1.5.
As to `CCCCOC(C)CO` (centres undefined), the logP worked out at 1.15.
As for `CCCCOC(C)COC(C)COC(C)CO` (centres undefined), the figure is 1.9; as for `COC(C)COC(C)COC(C)CO` (centres undefined), 0.31; as for `CCCOC(C)CO` (centres undefined), 0.62.
Regarding `CCCOC(C)COC(C)CO` (centres undefined), the logP worked out at 0.99.
As to `COCC(C)OCC(C)OCC(C)O` (centres undefined), the logP worked out at 0.31.
